Data: patent US4477464A, “Hetero-benzazepine derivatives and their pharmaceutical use” (Ciba-Geigy Corporation, priority 1983, dated 1984)
Structures can show the parent of a compound that is named as a salt.

Assays:
[1] = biological target: T1, angiotensin-converting enzyme (Oryctolagus cuniculus, UniProt P12822); assay: in vitro inhibition of angiotensin-converting enzyme (hippuryl-histidyl-leucine substrate); assay type: biochemical, rabbit; conditions: angiotensin-converting enzyme preparation from lungs of adult male rabbits, 37° C., 30 minutes
T1 construct: angiotensin-converting enzyme preparation (from lungs of adult male rabbits); from tissue; host or cells: lungs of adult male rabbits
T1 sequence (P12822 34-1310): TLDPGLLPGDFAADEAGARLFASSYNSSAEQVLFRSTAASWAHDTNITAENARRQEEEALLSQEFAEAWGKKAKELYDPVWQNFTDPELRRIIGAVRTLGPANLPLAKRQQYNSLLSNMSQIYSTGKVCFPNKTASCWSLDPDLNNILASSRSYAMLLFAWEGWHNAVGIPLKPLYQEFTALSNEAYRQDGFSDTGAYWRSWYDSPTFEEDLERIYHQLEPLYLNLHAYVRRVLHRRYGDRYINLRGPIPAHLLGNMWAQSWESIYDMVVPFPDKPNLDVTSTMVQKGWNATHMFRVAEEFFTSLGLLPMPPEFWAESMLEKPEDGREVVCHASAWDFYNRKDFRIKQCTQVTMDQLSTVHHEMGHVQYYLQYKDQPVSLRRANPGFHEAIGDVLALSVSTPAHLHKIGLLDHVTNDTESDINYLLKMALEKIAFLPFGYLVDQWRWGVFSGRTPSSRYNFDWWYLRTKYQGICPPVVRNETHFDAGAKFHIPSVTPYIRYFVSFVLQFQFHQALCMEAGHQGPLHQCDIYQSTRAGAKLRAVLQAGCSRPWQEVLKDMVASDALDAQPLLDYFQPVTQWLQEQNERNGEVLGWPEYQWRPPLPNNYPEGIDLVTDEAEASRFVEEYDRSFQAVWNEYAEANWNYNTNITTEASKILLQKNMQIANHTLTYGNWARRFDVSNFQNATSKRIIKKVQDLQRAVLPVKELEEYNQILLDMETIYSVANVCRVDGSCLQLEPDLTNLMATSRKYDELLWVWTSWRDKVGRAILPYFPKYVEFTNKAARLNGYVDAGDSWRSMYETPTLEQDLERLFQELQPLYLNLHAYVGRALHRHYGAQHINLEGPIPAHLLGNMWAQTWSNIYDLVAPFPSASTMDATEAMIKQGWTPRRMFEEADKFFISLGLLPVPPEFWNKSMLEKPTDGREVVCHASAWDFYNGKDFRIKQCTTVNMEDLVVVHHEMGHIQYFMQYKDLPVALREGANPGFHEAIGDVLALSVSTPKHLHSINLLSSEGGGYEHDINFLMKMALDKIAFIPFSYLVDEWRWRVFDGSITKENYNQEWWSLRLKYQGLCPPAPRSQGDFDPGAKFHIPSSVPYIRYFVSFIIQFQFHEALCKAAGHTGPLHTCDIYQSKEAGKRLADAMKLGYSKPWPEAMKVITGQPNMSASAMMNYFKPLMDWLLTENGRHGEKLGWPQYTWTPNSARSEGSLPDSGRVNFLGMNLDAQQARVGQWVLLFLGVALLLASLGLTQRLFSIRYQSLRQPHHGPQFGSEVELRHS
Experimental: Biophys. Acta 293, 451 (1973). According to this method, said compounds are dissolved at about 1 mM concentration in phosphate buffer. To 100 microliters of solutions of the test compound in phosphate buffer, diluted to the desired concentration, are added 100 microliters of 5 mM hippuryl-histidyl-leucine in phosphate buffer, followed by 50 microliters of the angiotensin-converting enzyme preparation (from lungs of adult male rabbits) in Tris buffer, containing potassium and magnesium chloride, as well as sucrose. Said solutions are incubated at 37° C. for 30 minutes and combined with 0.75 ml of 0.6N aqueous sodium hydroxide to stop further reaction. Then 100 microliters of a 0.2% solution of o-phthalaldehyde in methanol are added at room temperature, and 10 minutes later 100 microliters of 6N hydrochloric acid. These samples are read against water in a spectrophotometer set at 360 nm, and the optical densities thereof estimated. They are corrected for the standard curve via a conversion factor expressing nanomoles of histidyl-leucine formed during said 30 minute incubation period. The results are plotted against drug concentration to determine the IC50, i.e., the drug concentration which gives half the activity of the control sample containing no drug.

[2] = test system: angiotensin-converting enzyme; assay: inhibition of Angiotensin I induced pressor response in normotensive rats; assay type: in vivo, rat; conditions: normotensive anesthetized rats, 10 mg/kg p.o., measured 2 to 4 hours after administration
Experimental: Angiotensin I is hydrolyzed by the action of said converting enzyme to the potent pressor substance Angiotensin II. The inhibition of said enzyme prevents the generation of Angiotensin II from I and, therefore, attenuates any pressor response following an Angiotensin I challenge.
The corresponding in vivo test is performed with male, normotensive rats, which are anesthetized with sodium 5-ethyl-5-(1-methylpropyl)-2-thiobarbiturate. A femoral artery and saphenous vein are cannulated respectively for direct blood pressure measurement and the i.v. administration of Angiotensin I and a compound of this invention. After the basal blood pressure is stabilized, pressor responses to 3 challenges of 333 ng/kg angiotensin I i.v., at 5 minute intervals, are obtained. Such pressure responses are usually again obtained at time intervals after i.v. or p.o. administration of the compound to be tested, and compared with the initial responses. Any observed decrease of said pressor response is an indication of Angiotensin I converting enzyme inhibition. Illustrative of this invention, the compound of example 3a inhibits the pressor response following angiotensin I challenge by about 70% at a dose of 10 mg/kg p.o. as measured 2 to 4 hours after administration.

[3] = test system: spontaneously hypertensive rats; assay: antihypertensive effect in spontaneously hypertensive rats, indirect systolic pressure; assay type: in vivo, rat; conditions: 10 mg/kg p.o.
Experimental: The in vivo lowering effect on the blood pressure is recorded, either directly by means of a catheter, placed in the test animal's femoral artery, or indirectly by sphygmomanometry at the rat's tail or a transducer. The blood pressure is recorded in mm Hg prior to and after dosing.
Thus the antihypertensive effects are demonstrable in spontaneously hypertensive rats by indirect measurement of systolic pressure. Conscious rats are placed individually in restraint cages within a gently warmed chamber. A rubber pulse sensor is placed distal to an inflatable occlusive cuff on each rat's tail. The cuff is periodically inflated to occlude the tail artery, and systolic pressure is recorded as the point where the first discernible pulse emerges along the decaying calibrated pressure curve. After obtaining control values of blood pressure and heart rate, test compounds are administered orally once daily for 4 consecutive days. Additional blood pressure measurements are usually made at 2.0, 4.0 and 23.5 hours after each daily dosing, and responses are compared to those of rats dosed with the treatment vehicle.
Illustrative of the invention, the compound of example 3a at a dose of 10 mg/kg p.o. lowers blood pressure by about 35 mm Hg.

IC50 [1] | SMILES | inhibition of pressor response following angiotensin I challenge [2] | lowering of blood pressure [3]
~10 nM | O=C(O)CN1C(=O)[C@@H](NC(CCc2ccccc2)C(=O)O)CSc2ccccc21 (stereo partly drawn) [Example 2, (3R)-[N-(1-carboxy-3-phenylpropyl)amino]-5-carboxymethyl-2,3-dihydro-1,5-benzothiazepin-4(5H)-one] | – | –
– | CCOC(=O)[C@H](CCc1ccccc1)N[C@H]1CSc2ccccc2N(CC(=O)O)C1=O [Example 3a, (3R)-{N-[(1S)-carboethoxy-3-phenylpropyl]amino}-5-carboxymethyl-2,3-dihydro-1,5-benzothiazepin-4(5H)-one hydrochloride] | about 70% | about 35 mm Hg
~3 nM | O=C(O)CN1C(=O)[C@@H](N[C@@H](CCc2ccccc2)C(=O)O)CSc2ccccc21 [Example 6, (3R)-{N-[(1S)-carboxy-3-phenylpropyl]amino}-5-carboxymethyl-2,3-dihydro-1,5-benzothiazepin-4(5H)-one] | – | –
~6 nM | O=C(O)CN1C(=O)[C@@H](N[C@@H](CCc2ccccc2)C(=O)O)C[S+]([O-])c2ccccc21 (stereo partly drawn) [Example 12, (3R)-{N-[(1S)-carboxy-3-phenylpropyl]amino}-5-carboxymethyl-2,3-dihydro-1-oxo-1,5-benzothiazepin-4(5H)-one] | – | –
~28 nM | NCCCCC(N[C@H]1CSc2ccccc2N(CC(=O)O)C1=O)C(=O)O (stereo partly drawn) [Example 14, (3R)-[N-(1-carboxy-5-aminopentyl)amino]-5-carboxymethyl-2,3-dihydro-1,5-benzothiazepin-4(5H)-one dihydrochloride] | – | –
